Source: ChEMBL document CHEMBL3120142 (J Med Chem, 2014)
Converted amounts (≈) assume the structure as drawn. The source made the active and inactive calls. The rule behind the calls is not given here.

What was measured:
[1] = Cmax in Sprague-Dawley rat at 50 mg/kg, po by LC-MS/MS analysis; format: ADME, organism-based; parameters: dose 50 mg/kg, route oral; details: in vivo
[2] = Prodrug activation in 9000g pig liver supernatant assessed as formation of oseltamivir carboxylate per mg protein at 500 uM after 30 mins by HPLC analysis; format: tissue-based, Sus scrofa; details: 0.5 h
[3] = Solubility of the compound in phosphate buffer saline at pH 2.0 after 20 mins by HPLC analysis; format: physicochemical
[4] = biological target: albumin (Homo sapiens, UniProt P02768); assay: Binding affinity to albumin (unknown origin) at 10 to 50 uM after 10 mins by HPLC analysis; format: ADME; details: read-out: PPB (converted)
Chain of albumin (P02768 whole entry): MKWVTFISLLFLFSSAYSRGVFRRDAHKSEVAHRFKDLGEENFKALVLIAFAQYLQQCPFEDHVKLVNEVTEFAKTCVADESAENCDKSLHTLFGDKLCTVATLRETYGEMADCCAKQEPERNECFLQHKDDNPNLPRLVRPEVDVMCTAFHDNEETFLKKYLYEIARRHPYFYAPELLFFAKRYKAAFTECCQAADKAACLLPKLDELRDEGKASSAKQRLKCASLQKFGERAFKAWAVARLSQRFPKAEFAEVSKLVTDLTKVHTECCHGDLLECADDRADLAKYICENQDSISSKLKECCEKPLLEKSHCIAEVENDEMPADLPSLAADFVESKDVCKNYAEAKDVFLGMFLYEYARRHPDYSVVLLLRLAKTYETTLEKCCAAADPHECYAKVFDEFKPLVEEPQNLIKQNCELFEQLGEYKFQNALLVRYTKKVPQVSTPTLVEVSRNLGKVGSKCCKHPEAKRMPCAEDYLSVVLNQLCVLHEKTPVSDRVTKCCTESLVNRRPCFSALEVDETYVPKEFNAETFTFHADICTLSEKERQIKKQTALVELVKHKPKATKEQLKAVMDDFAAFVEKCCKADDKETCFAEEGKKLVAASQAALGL

[5] = Solubility of the compound in phosphate buffer saline at pH 7.4 after 20 mins by HPLC analysis; format: physicochemical
[6] = Prodrug activation in pig liver microsomes assessed as formation of oseltamivir carboxylate per mg protein at 500 uM after 30 mins by HPLC analysis; parameters: species or system Sus scrofa, Microsome; details: 0.5 h
[7] = Prodrug activation in human liver cytosol assessed as formation of oseltamivir carboxylate per mg protein at 500 uM after 30 mins by HPLC analysis; format: tissue-based; details: 0.5 h
[8] = test system: Liver; assay: Prodrug activation in 9000g human liver supernatant assessed as formation of oseltamivir carboxylate per mg protein at 500 uM after 30 mins by HPLC analysis; format: tissue-based; details: 0.5 h
[9] = Prodrug activation in pig liver mitochondria assessed as formation of oseltamivir carboxylate per mg protein at 500 uM after 30 mins by HPLC analysis; parameters: species or system Sus scrofa; details: 0.5 h
[10] = Prodrug activation in human liver mitochondria assessed as formation of oseltamivir carboxylate per mg protein at 500 uM after 30 mins by HPLC analysis; details: 0.5 h
[11] = in vivo; details: Sprague-Dawley, rat, po, 10 mg/kg
[12] = Tmax in Sprague-Dawley rat at 50 mg/kg, po by LC-MS/MS analysis; format: ADME, organism-based; parameters: dose 50 mg/kg, route oral; details: in vivo
[13] = Mean residence time in Sprague-Dawley rat at 50 mg/kg, po by LC-MS/MS analysis; format: ADME, organism-based; parameters: dose 50 mg/kg, route oral; details: in vivo
[14] = Chemical stability of the compound in phosphate buffer saline at pH 2.0 to 9.0; format: physicochemical
[15] = Solubility of the compound in phosphate buffer saline at pH 9.0 after 20 mins by HPLC analysis; format: physicochemical
[16] = in vivo; details: Sprague-Dawley, rat, po, 50 mg/kg
[17] = Prodrug activation in pig liver assessed as carboxylesterase-mediated oseltamivir carboxylate formation per mg protein at 500 uM after 30 mins by HPLC analysis; format: tissue-based, Sus scrofa; details: 0.5 h
[18] = AUC in Sprague-Dawley rat at 50 mg/kg, iv by LC-MS/MS analysis; format: ADME, organism-based; parameters: dose 50 mg/kg, route intravenous; details: plasma
[19] = test system: Liver microsome; assay: Prodrug activation in human liver microsomes assessed as formation of oseltamivir carboxylate per mg protein at 500 uM after 30 mins by HPLC analysis; details: 0.5 h
[20] = in vivo; details: Sprague-Dawley, rat, po, 50 mg/kg; remark: listed apart in the source
Description: Half life in Sprague-Dawley rat at 50 mg/kg, po by LC-MS/MS analysis

[21] = test system: Influenza A virus; assay: microbe, parasite or virus in culture; details: A/Jena/5258/2009(H1N1), MDCK, 48 h
[22] = test system: MDCK; assay: Cytotoxicity against MDCK cells assessed as cell viability after 72 hrs; format: cell-based, Canis lupus familiaris; details: dog
[23] = test system: Influenza A virus; format: functional, organism-based; details: A/Jena/5258/2009(H1N1), MDCK
[24] = test system: Influenza A virus; assay: Antiviral activity against Influenza A virus H3N2; format: functional, organism-based
[25] = test system: Influenza A virus; assay: Antiviral activity against Influenza A virus H1N1; format: functional, organism-based
[26] = Half life in Sprague-Dawley rat plasma; format: ADME, cell-free
[27] = biological target: T1, Neuraminidase (Influenza A virus, UniProt B4URF0); parameters: species or system A/Berlin/10/04(H3N2)
T1 sequence (B4URF0 whole entry): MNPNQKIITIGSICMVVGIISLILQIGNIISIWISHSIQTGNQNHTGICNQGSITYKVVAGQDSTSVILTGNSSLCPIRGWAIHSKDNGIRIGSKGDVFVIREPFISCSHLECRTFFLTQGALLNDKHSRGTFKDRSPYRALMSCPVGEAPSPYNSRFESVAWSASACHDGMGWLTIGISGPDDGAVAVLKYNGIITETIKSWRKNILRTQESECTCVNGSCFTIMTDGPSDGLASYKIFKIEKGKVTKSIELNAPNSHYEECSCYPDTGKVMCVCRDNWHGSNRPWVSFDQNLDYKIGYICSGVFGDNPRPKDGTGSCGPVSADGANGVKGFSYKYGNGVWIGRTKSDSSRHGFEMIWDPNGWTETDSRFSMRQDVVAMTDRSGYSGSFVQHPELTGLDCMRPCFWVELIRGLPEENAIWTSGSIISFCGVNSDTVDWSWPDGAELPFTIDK

[28] = biological target: T1, Neuraminidase; parameters: species or system A/Jena/5258/2009(H1N1)
[29] = Mean residence time in Sprague-Dawley rat at 10 mg/kg, iv by LC-MS/MS analysis; format: ADME, organism-based; parameters: dose 10 mg/kg, route intravenous; details: in vivo
[30] = in vivo; details: Sprague-Dawley, rat, iv, 10 mg/kg
Description: Half life in Sprague-Dawley rat at 10 mg/kg, iv by LC-MS/MS analysis

[31] = biological target: T1, Neuraminidase; parameters: species or system A/HH/1580/09(H1N1)
[32] = biological target: T1, Neuraminidase; parameters: species or system A/Jena/5555/09(H1N1)
[33] = test system: Rattus norvegicus; assay: Bioavailability in Sprague-Dawley rat at 10 mg/kg, iv by LC-MS/MS analysis; format: ADME, organism-based; details: in vivo
[34] = Plasma protein binding in human at 10 to 50 uM after 10 mins by HPLC analysis; format: ADME, cell-free; details: read-out: PPB (converted)
[35] = biological target: T1, Neuraminidase; parameters: species or system A/Sachsen/6/02(H3N2)
[36] = biological target: T1, Neuraminidase; parameters: species or system A/Rheinland-Pfalz/3911/03(H3N2)
[37] = biological target: T1, Neuraminidase; parameters: species or system A/Hong Kong/68(H3N2)
[38] = Oral bioavailability in fed mouse at 10 mg/kg by LC-MS/MS analysis; format: ADME, organism-based; details: in vivo
[39] = Oral bioavailability in fasted mouse at 10 mg/kg by LC-MS/MS analysis; format: ADME, organism-based; details: in vivo
[40] = AUC in Sprague-Dawley rat at 10 mg/kg, iv by LC-MS/MS analysis; format: ADME, organism-based; parameters: dose 10 mg/kg, route intravenous; details: plasma
[41] = Prodrug activation in pig liver cytosol assessed as formation of oseltamivir carboxylate per mg protein at 500 uM after 30 mins by HPLC analysis; format: tissue-based, Sus scrofa; details: 0.5 h

For `CCOC(=O)C1=C[C@@H](OC(CC)CC)[C@H](NC(C)=O)[C@@H](NC(=N)N)C1`, the Cmax [1] was 100 ng/mL, the Drug metabolism [2] was 0.22 nmol/min/mg and the solubility at 20 min [3] was greater than 50 mM. For the same molecule, the fraction unbound at 10 min, up to 50 µM [4] was 0.699, the solubility at 20 min [5] was greater than 50 mM and the Drug metabolism [6] was 0.22 nmol/min/mg. For the same molecule, the Drug metabolism [7] was 0.5 nmol/min/mg, the Drug metabolism [8] was 0.32 nmol/min/mg and the Drug metabolism [9] was 0.21 nmol/min/mg. For the same molecule, the Drug metabolism [10] was 0.79 nmol/min/mg, the bioavailability [11] was 2.1% and the Tmax [12] was 1 h. The MRT [13] was 2.62 h, the Stability [14] was “Stable” and the solubility at 20 min [15] was greater than 50 mM. The bioavailability [16] was 1.3%, the Drug metabolism [17] was 1.35 nmol/min/mg and the AUC [18] was 217 ng·h/mL. It also gave a Drug metabolism [19] of 1.06 nmol/min/mg and a half-life [20] of 1.45 h.

In the case of `CCC(CC)O[C@@H]1C=C(C(=O)O)C[C@H](N)[C@H]1NC(C)=O` [OSELTAMIVIR CARBOXYLATE], the EC50 [21] is reported as 5210 nM, the IC [22] is reported as “<= 200 ug ml-1” and the Activity [23] is reported as “Active”. For the same molecule, the IC50 [24] was 0.24 nM and the IC50 [25] was 0.12 nM.

In the case of `CCOC(=O)C1=C[C@@H](OC(CC)CC)[C@H](NC(C)=O)[C@@H](N)C1` [OSELTAMIVIR], the bioavailability [11] is reported as 36% and the half-life [26] is reported as 0.733 h.

`CCOC(=O)C1=C[C@@H](OC(CC)CC)[C@H](NC(C)=O)[C@@H](NC(N)=NO)C1` showed a Cmax [1] of 100 ng/mL, a solubility at 20 min [3] greater than 50 mM and a fraction unbound at 10 min, up to 50 µM [4] of 0.625. For the same molecule, the solubility at 20 min [5] was greater than 50 mM, the Drug metabolism [7] was 0.28 nmol/min/mg and the Drug metabolism [8] was 0.76 nmol/min/mg. The Drug metabolism [10] was 1.74 nmol/min/mg, the Tmax [12] was 1.52 h and the MRT [13] was 2.8 h. The Stability [14] was “Stable”, the solubility at 20 min [15] was greater than 50 mM and the bioavailability [16] was 1.5%. It also gave an AUC [18] of 317 ng·h/mL, a Drug metabolism [19] of 1.76 nmol/min/mg and a half-life [20] of 1.15 h.

For `CCC(CC)O[C@@H]1C=C(C(=O)O)C[C@H](NC(C)=N)[C@H]1NC(C)=O`, the IC50 [27] was 1.3 nM, the IC50 [28] was 0.45 nM and the Cmax [1] was 600 ng/mL. For the same molecule, the EC50 [21] was 1900 nM, the MRT [29] was 0.533 h and the solubility at 20 min [3] was greater than 50 mM. It also gave a fraction unbound at 10 min, up to 50 µM [4] of 0.978, a solubility at 20 min [5] greater than 50 mM and a half-life [30] of 0.567 h. It also gave an IC50 [31] of 0.3 nM, an IC50 [32] of 0.44 nM and an F [33] of 100%. It also gave an IC [22] of 0.53 mM, a fraction unbound at 10 min, up to 50 µM [34] of 0.963 and a Tmax [12] of 0.733 h. For the same molecule, the MRT [13] was 2.1 h, the Stability [14] was “Stable” and the solubility at 20 min [15] was greater than 50 mM. The IC50 [35] was 2.3 nM, the IC50 [36] was 1.79 nM and the bioavailability [16] was 3.9%. For the same molecule, the IC50 [37] was 1.87 nM, the IC50 [24] was 1.82 nM and the IC50 [25] was 0.4 nM. It also gave an AUC [18] of 1880 ng·h/mL and a half-life [20] of 1.13 h.

In the case of `CCC(CC)O[C@@H]1C=C(C(=O)O)C[C@H](NC(=N)N)[C@H]1NC(C)=O`, the bioavailability [38] is reported as 23%, the Cmax [1] is reported as 300 ng/mL and the EC50 [21] is reported as 3120 nM. The MRT [29] was 0.983 h, the bioavailability [39] was 48% and the fraction unbound at 10 min, up to 50 µM [4] was 0.996. It also gave a half-life [30] of 1.57 h, an AUC [40] of 4800 ng·h/mL and an F [33] of 100%. The IC [22] was 0.55 mM, the fraction unbound at 10 min, up to 50 µM [34] was 0.914 and the Tmax [12] was 1.72 h. For the same molecule, the MRT [13] was 2.2 h, the Stability [14] was “Stable” and the bioavailability [16] was 1.9%. The IC50 [24] was 0.8 nM, the IC50 [25] was 0.22 nM and the AUC [18] was 450 ng·h/mL. It also gave a half-life [20] of 1.22 h.

With `CC(=O)N[C@H]1[C@H]([C@H](O)[C@H](O)CO)OC(C(=O)O)=C[C@@H]1N=C(N)N` [ZANAMIVIR] the IC [22] was “<= 200 ug ml-1”.

With `CCOC(=O)C1=C[C@@H](OC(CC)CC)[C@H](NC(C)=O)[C@@H](N/C(C)=N/O)C1` the Cmax [1] was 3100 ng/mL, the solubility at 20 min [3] was greater than 50 mM and the fraction unbound at 10 min, up to 50 µM [4] was 0.733. The solubility at 20 min [5] was 23 mM (≈ 8.5 mg/mL), the Drug metabolism [41] was 0.4 nmol/min and the Drug metabolism [8] was 0.56 nmol/min/mg. It also gave a Drug metabolism [9] of 0.51 nmol/min/mg, a Drug metabolism [10] of 0.29 nmol/min/mg and a Tmax [12] of 1.37 h. For the same molecule, the MRT [13] was 3.43 h, the Stability [14] was “Stable” and the solubility at 20 min [15] was 23 mM (≈ 8.5 mg/mL). For the same molecule, the bioavailability [16] was 31.4%, the AUC [18] was 13300 ng·h/mL and the Drug metabolism [19] was 2.3 nmol/min/mg. The half-life [20] was 1.85 h.

For `Br.CCOC(=O)C1=C[C@@H](OC(CC)CC)[C@H](NC(C)=O)[C@@H](NC(C)=N)C1`, the Cmax [1] was 200 ng/mL, the Drug metabolism [2] was 0.42 nmol/min/mg and the solubility at 20 min [3] was greater than 50 mM. It also gave a fraction unbound at 10 min, up to 50 µM [4] of 0.652, a solubility at 20 min [5] greater than 50 mM and a Drug metabolism [6] of 0.3 nmol/min/mg. The Drug metabolism [41] was 0.66 nmol/min, the Drug metabolism [8] was 0.2 nmol/min/mg and the Drug metabolism [9] was 0.15 nmol/min/mg. It also gave a Drug metabolism [10] of 0.56 nmol/min/mg, a Tmax [12] of 0.517 h and an MRT [13] of 1.62 h. For the same molecule, the Stability [14] was “Stable”, the solubility at 20 min [15] was greater than 50 mM and the bioavailability [16] was 0.8%. It also gave a Drug metabolism [17] of 0.83 nmol/min/mg, an AUC [18] of 283 ng·h/mL and a Drug metabolism [19] of 0.64 nmol/min/mg. It also gave a half-life [20] of 0.7 h.

For `CC(=O)N[C@H]1[C@H]([C@H](O)[C@H](O)CO)OC(C(=O)O)=C[C@@H]1NC(=N)N` [ZANAMIVIR], the EC50 [21] was 6560 nM and the Activity [23] was “Active”.
